Here are results for 2 substances from publication PMC8071358, “Targeting of the Essential acpP, ftsZ, and rne Genes in Carbapenem-Resistant Acinetobacter baumannii by Antisense PNA Precision Antibacterials” (Biomedicines, 2021).

Data set [1] concerns A. baumannii ATCC 19606. Put plainly: BPP-PNA MIC, broth microdilution. The format is cell-based, Acinetobacter baumannii. Particulars: 37 °C, 18 h. The procedure, abridged:
(§1)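 Non-cation-adjusted MHB, inoculum ~5 × 10^5 CFU/mL; BPP-PNA 2-fold series prepared at 16–0.5 µM before addition to wells. 37 °C, 18 h, linear shaking, OD 595 nm every 20 min. ≥2 biological × 2 technical replicates.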

Data set [2] deals with CRAB strain AC1. Description: BPP-PNA MIC, broth microdilution. The class given is cell-based, Acinetobacter baumannii. Particulars: MHB without cation (Oxoid); 37 °C, 18 h. The procedure, abridged:
as §1
In general terms: Dilution methods test growth across graded concentrations, often in twofold steps.

The subject of data set [3] is CRAB strain AC2. Put plainly: BPP-PNA MIC, broth microdilution. The format is cell-based, Acinetobacter baumannii. Particulars: 37 °C, 18 h. The method in brief: as §1
For data set [4], the system named is CRAB strain AC44. Put plainly: BPP-PNA MIC, broth microdilution. The format is cell-based, Acinetobacter baumannii. Particulars: 37 °C, 18 h. The method in brief: as §1
Data set [5] has as its system CRAB strain AC4. Put plainly: BPP-PNA MIC, broth microdilution. The format is cell-based, Acinetobacter baumannii. Particulars: MHB without cation (Oxoid); 37 °C, 18 h. The procedure, abridged:
as §1

In data set [6] the test system is CRAB strain AC5. Description: BPP-PNA MIC, broth microdilution. Particulars: MHB without cation (Oxoid); 37 °C, 18 h. The class given is cell-based, Acinetobacter baumannii. The method in brief: as §1
The test system of data set [7] is CRAB strain AC6. Description: BPP-PNA MIC, broth microdilution. Particulars: MHB without cation (Oxoid); 37 °C, 18 h. The format is cell-based, Acinetobacter baumannii. The procedure, abridged: as §1
Data set [8] has as its system CRAB strain AC7. Description: BPP-PNA MIC, broth microdilution. Particulars: MHB without cation (Oxoid); 37 °C, 18 h. The class given is cell-based, Acinetobacter baumannii. The method in brief: as §1
The test system of data set [9] is CRAB strain AC8. Put plainly: BPP-PNA MIC, broth microdilution. The format is cell-based, Acinetobacter baumannii. Particulars: MHB without cation (Oxoid); 37 °C, 18 h. The procedure, abridged: as §1
Data set [10] concerns CRAB strain AC9. Put plainly: BPP-PNA MIC, broth microdilution. The format is cell-based, Acinetobacter baumannii. Particulars: MHB without cation (Oxoid); 37 °C, 18 h. The procedure, abridged: as §1
The subject of data set [11] is A. baumannii SSI1104. Description: BPP-PNA MIC, broth microdilution. The format is cell-based, Acinetobacter baumannii. Particulars: 37 °C, 18 h. The procedure, abridged:
as §1

Data set [12] deals with CRAB strain AC46. Description: BPP-PNA MIC, broth microdilution. Particulars: 37 °C, 18 h. The format is cell-based, Acinetobacter baumannii.
Data set [13] relates to P. aeruginosa (PAO1). Put plainly: BPP-PNA MIC, broth microdilution. The class given is cell-based, Pseudomonas aeruginosa. Particulars: non-target species; MHB without cation (Oxoid). As to the method:
(§2) MIC values were determined by broth microdilution according to standard protocols with a few modifications. An overnight bacterial cell culture was diluted to approximately 5 × 10^5 CFU/mL in non-cation-adjusted Muller Hinton Broth (MHB). Then, 180 µL bacterial solutions were dispensed into a low-bind 96-well plate (Thermo-Scientific, Roskilde, Denmark) along with 20 µL of BPP-PNA compound (BPP-PNA was serially diluted 2-fold from 16 to 0.5 µM in a 96-well plate). The plate was incubated in a Tecan Genios plate reader (GMI, Minnesota, Ramsey, USA) at 37 °C for 18 h with linear shaking, OD was measured every 20 min at 595 nm. […] The minimum bactericidal concentration (MBC) values were determined by plating 10 µL samples from the wells with no visible turbidity onto Mueller–Hinton agar plates. The MBC is determined the lowest concentration of BPP-PNA that reduces the viability of the initial bacterial inoculum by ≥99.9% (3-log reduction in CFU/mL). A minimum of two independent experiments (biological replicates) of the assay were conducted, and two technical replicates were used in each experiment for each bacterium, compound, and concentration.

Data set [14] has as its system E. coli K-12 MG1655. Put plainly: BPP-PNA MIC, broth microdilution. The format is cell-based, Escherichia coli. Particulars: non-target species; MHB without cation (Oxoid). Here is the method:
as §2

In data set [15] the test system is CRAB strains. Description: BPP-PNA MIC/MBC summarised over the panel of strains. The format is cell-based, Acinetobacter baumannii. Particulars: for bactericidal concentration relative to MIC: CRAB strains; for MIC (complete growth inhibition) over the CRAB strains tested: several A. baumannii strains. As to the method: as §2
Data set [16] deals with A. baumannii ATCC 19606. Put plainly: Time-kill assay. The class given is cell-based, Acinetobacter baumannii. Particulars: ~10^6 CFU/mL, 37 °C, MHB without cation (Sigma). Here is the method:
Bacterial cultures were harvested at 0, 90 min, 3 and 6 h. The content of each well was added to 0.9 mL of MHB and centrifuged at 9300× g for 5 min. Supernatants were removed and the cell pellets were suspended in fresh pre-warmed MHB (100 μL). Tenfold serial dilution were prepared, and 10 μL aliquots were plated on Mueller–Hinton agar and incubated overnight at 37 °C to determine the CFU/mL [17].

Data set [17] relates to HepG2 hepatocytes. Put plainly: HepG2 cell toxicity (CellTiter-Glo, ATP). The format is cell-based. Particulars: HepG2, 2–4 µM, ATP level. Here is the method:
The cell toxicity of selected BPP-PNAs was determined using HepG2 hepatocytes grown in DMEM (low glucose) medium supplemented with 100 U/mL penicillin, 100 µg/mL streptomycin, 1% glutamax, and 10% fetal bovine serum (FBS) (Thermofisher Scientific, Roskilde, Denmark), at 37 °C with 5% CO2. Then, 7000–10,000 cells were seeded in each well of a 96-well plate. After 48 h, the BPP-PNAs were added (six replicates for each concentration), followed by overnight incubation. Total amount of adenosine triphosphate (ATP) was used as a measure of cell viability, according to the CellTiter-Glo luminescent cell viability assay (Promega, Madison, WI, USA) kit. BPP-PNAs concentrations ranged from 2.5 to 20 µM. Potassium dichromate (100 µM) was used as a positive control.
Background: In ATP-based viability assays light output follows the ATP content of the culture.

For data set [18], the system named is A. baumannii ATCC 19606. Description: Envelope disruption, Sytox green uptake. The format is cell-based, Acinetobacter baumannii. Particulars: fluorescence over 90 min, 37 °C. Here is the method: A culture of A. baumannii ATCC 19606 was grown in MHB (195 rpm at 37 °C), until OD595 = 0.4. Then, bacterial cells were pelleted by centrifugation, washed with 0.9% NaCl, and resuspended in MHB at an OD595 = 0.1. Sytox green dye (Invitrogen) was added to the bacterial culture at a concentration of 2 µM followed by incubation for 5 min at 37 °C, followed by addition of the desired amount of BPP–PNA in a 96-well plate format. Fluorescence intensity (λex = 480 nm, λem = 520 nm) was measured every 5 min for 90 min at 37 °C with continuous shaking.

[19] abbreviates: Oxoid MHB medium, cation adjusted.
Setting [20] is: Sigma MHB medium without cation.

On to “H-(KFF)3K-eg1-GAGGCCATGAC-NH2 (antisense; N-terminal (KFF)3K-eg1 peptide, C-terminal amide, backbone not given here, further chemistry not given here) [PNA 5612, anti-ftsZ peptide-PNA conjugate, match, −3 to +8]”, for which the “MIC, ATCC 19606” value in data set [1] (MHB without cation (Oxoid)) is 4 µM. For the same substance, the “MIC, AC1” value in [2] was found to be 4 µM. For the same substance, the “MIC, AC2” value in data set [3] (MHB without cation (Oxoid)) is 2 µM. In addition, the “MIC, AC44” value in data set [4] (MHB without cation (Oxoid)) is recorded as 8 µM. Moreover, the “MIC, AC4” value in data set [5] stood at 8 µM. Besides, the “MIC, AC5” value in data set [6] came out at 4 µM. In [7], the “MIC, AC6” value was found to be 4 µM. Moreover, the “MIC, AC7” value in data set [8] is reported as 4 µM. For the same substance, the “MIC, AC8” value in data set [9] is 8 µM. For the same substance, in data set [10], the “MIC, AC9” value came out at 2 µM. For the same substance, in data set [11] (MHB without cation (Oxoid)), the “MIC, SSI 1104” value is 4 µM. Besides, in data set [12] (MHB without cation (Oxoid)), the “MIC, AC46” value is 8 µM. In addition, in data set [13], the “MIC, P. aeruginosa (PAO1)” value was greater than 16 µM. The “MIC, E. coli K-12 MG1655” value in data set [14] is listed as greater than 16 µM. In data set [15], the “concentration with bactericidal activity against carbapenem-resistant A. baumannii” value was found to be 4 µM, the “bactericidal concentration relative to MIC” value is recorded as 1–2 × MIC and the “MIC (complete growth inhibition) over the CRAB strains tested” value was 2 to 8 µM. The “MIC range against 12 multidrug resistant clinical isolates” value in data set [15] (12 CRAB clinical isolates (Table 3)) lay in the range of 2 to 8 µM. The “match/mismatch ratio of MIC” value in data set [15] (12 multidrug resistant clinical isolates, 5612 vs 5615) is listed as 2–8 fold. This substance also registered an MIC50 in data set [15] (over the CRAB and ATCC 19606 strains of Table 3, MHB without cation (Oxoid)) of 4 µM. For the same substance, in data set [15] (strains of Table 2 (5612 vs 5615) or Table 4 (5656 vs 5822)), the “MIC of match PNA lower than mismatch control (mismatch discrimination)” value is reported as 2–4 fold. Also, in [16] (4 μM, after 3 h), the “CFU reduction in time-kill” value is “more than three order of magnitude CFU reduction”. In data set [17], the “reduction in cell viability at MIC50 concentration” value is “no reduction in viability”. In addition, the “membrane disruption activity (Sytox uptake)” value (from here on “membrane disruption activity”) in data set [18] (8 µM) was “only a minimal effect”. Moreover, the “membrane disruption activity” value in data set [18] (2× MIC concentration (4 µM)) is listed as “no indication of membrane disruption activity”.

As to “H-(KFF)3K-eg1-TGATTTGCCAC-NH2 (antisense; N-terminal (KFF)3K-eg1 peptide, C-terminal amide, backbone not given here, further chemistry not given here) [PNA 5639, anti-acpP peptide-PNA conjugate, match, +1 to +11]”, the “MIC, ATCC 19606” value was found to be 2 µM in data set [1] (MHB without cation (Oxoid)); 4 µM in data set [1] (setting [19]); 2 µM in data set [1] (Sigma MHB medium without cation, ~5 × 10^5 CFU/mL, OD595 < 0.1). For the same substance, the “MIC, AC2” value was 4 µM in data set [3] (setting [19]) and 1 to 2 µM in [3] (setting [20]). Also, the “MIC, AC44” value in data set [4] (setting [19]) is recorded as 4 µM; in data set [4] (setting [20]) it was 1 µM. In addition, the “MIC, SSI 1104” value in [11] (MHB without cation (Oxoid)) is 2 µM; in [11] (setting [19]), 4 µM; in data set [11] (setting [20]), 2 µM. Also, the entries for the “MIC, AC46” value in [12] (setting [19]) and in [12] (setting [20]) were 4 µM and 1 µM, respectively. The “MIC, P. aeruginosa (PAO1)” value in data set [13] is given as greater than 16 µM. Also, the “MIC, E. coli K-12 MG1655” value in data set [14] is listed as greater than 16 µM. The “concentration with bactericidal activity against carbapenem-resistant A. baumannii” value in data set [15] is 4 µM. In addition, in data set [15], the “bactericidal concentration relative to MIC” value is recorded as 1–2 × MIC. Also, the “decrease of potency in cation adjusted MHB” value in data set [15] (cation adjusted MHB against MHB without cation) is 1–4 fold. Further, the “MIC (complete growth inhibition) over the CRAB strains tested” value in data set [15] lay in the range of 1 to 2 µM. The “CFU reduction in time-kill” value in data set [16] (4 or 8 μM, after 3 h treatment) is recorded as 4 log. For the same substance, the “reduction in cell viability at MIC50 concentration” value in data set [17] was “no reduction in viability”. Moreover, the “membrane disruption activity” value in [18] (8 µM) is given as “only a minimal effect”; in data set [18] (2× MIC concentration (4 µM)) it was “no indication of membrane disruption activity”.
